Measurements published in ChEMBL document CHEMBL1201862, “PubChem BioAssay data set” (2004).
Activity calls are given as the source filed them.

How the values were obtained:
Fibrinogen beta chain [1] = biological target: T1, Fibrinogen beta chain (Homo sapiens, UniProt P02675); experiment: Fluorescence polarization-based biochemical high throughput dose response assay to identify inhibitors that disrupt the binding of a cyclic peptide (Tn6) to the fibrin proteolytic product D-Dimer and fragment E complex [DD(E )].
T1 sequence (P02675 whole entry, the tested form may be a part): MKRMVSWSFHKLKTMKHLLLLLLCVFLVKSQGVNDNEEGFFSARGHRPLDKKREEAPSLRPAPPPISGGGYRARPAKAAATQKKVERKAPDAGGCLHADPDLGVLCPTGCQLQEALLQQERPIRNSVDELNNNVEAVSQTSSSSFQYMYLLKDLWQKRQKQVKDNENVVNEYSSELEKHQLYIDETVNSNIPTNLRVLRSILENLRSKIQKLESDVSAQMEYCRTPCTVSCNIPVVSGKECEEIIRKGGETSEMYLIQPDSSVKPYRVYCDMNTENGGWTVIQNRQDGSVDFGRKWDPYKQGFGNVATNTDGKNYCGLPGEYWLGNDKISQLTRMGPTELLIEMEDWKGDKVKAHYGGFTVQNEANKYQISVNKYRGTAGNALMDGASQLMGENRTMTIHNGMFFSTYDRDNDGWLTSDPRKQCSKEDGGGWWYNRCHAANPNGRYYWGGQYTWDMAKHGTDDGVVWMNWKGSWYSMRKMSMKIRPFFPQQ

Fibrinogen beta chain [2] = biological target: T1, Fibrinogen beta chain; experiment: Fluorescence polarization-based biochemical high throughput dose response assay to identify inhibitors that disrupt the binding of a cyclic peptide (Tn7) to the fibrin proteolytic product D-Dimer and fragment E complex [DD(E )].
[3] = NIH-3T3 fibroblast cytotoxicity, dose response, cytotoxicity control, cell-based, fluorescence, Alamar Blue, secondary assay (AID 2327); format: functional;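 note: NIH-3T3 mouse fibroblasts cultured with fluconazole at 8 µg/mL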
[4] = tested on: Streptococcus sp. 'group A'; experiment: Streptococcus pyogenes SK(-)GAS viability under kanamycin – luminescence, BacTiterGlo, confirmation, counter-screen for streptokinase expression inhibitor project, dose response (AID 1900); format: functional, organism-based
[5] = biological target: Luciferin 4-monooxygenase (Photinus pyralis, UniProt P08659); experiment: Counter Screen for Luciferase-based Assay Positives. [Related pubchem assays: 620, 618, 411 ]
Chain of Luciferin 4-monooxygenase (P08659 whole entry): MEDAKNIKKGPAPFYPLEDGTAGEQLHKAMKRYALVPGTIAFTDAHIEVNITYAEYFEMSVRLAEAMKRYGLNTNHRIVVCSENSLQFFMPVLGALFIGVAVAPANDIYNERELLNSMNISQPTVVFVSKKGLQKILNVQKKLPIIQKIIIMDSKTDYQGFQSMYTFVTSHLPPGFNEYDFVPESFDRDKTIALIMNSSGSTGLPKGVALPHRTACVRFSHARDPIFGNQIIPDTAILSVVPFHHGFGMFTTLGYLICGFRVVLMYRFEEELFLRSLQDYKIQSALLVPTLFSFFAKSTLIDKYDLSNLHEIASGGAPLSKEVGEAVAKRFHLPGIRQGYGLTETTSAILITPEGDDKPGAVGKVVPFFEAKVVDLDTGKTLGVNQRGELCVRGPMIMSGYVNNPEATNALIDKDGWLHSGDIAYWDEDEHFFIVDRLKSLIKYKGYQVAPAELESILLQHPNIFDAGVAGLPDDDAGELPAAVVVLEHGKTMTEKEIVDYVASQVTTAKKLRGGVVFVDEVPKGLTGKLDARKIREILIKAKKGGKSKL

cells [6] = format: functional, cell-based
[7] = fluconazole-exposed Candida albicans growth modulators – fluorescence, retest, confirmation (AID 2467); format: functional, cell-based
cells [8] = format: functional, cell-based; remark: listed apart in the source
HT-1080 = experiment: HT1080 cell viability loss – fluorescence readout (AID 620); format: functional, cell-based; details: Homo sapiens
Streptococcus = experiment: GAS UMAA2166 growth inhibition – luminescence, BacTiterGlo, counter-screen for streptokinase expression inhibitor project, dose response (AID 1915); format: functional, organism-based;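 note: potency for reduction of bacterial viability or growth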
Coagulation factor XII = biological target: T2, Coagulation factor XII (Homo sapiens, UniProt P00748); experiment: activated coagulation factor XII inhibitor potency, concentration-effect curve, cell-free (AID 716); format: functional
T2 sequence (P00748 whole entry): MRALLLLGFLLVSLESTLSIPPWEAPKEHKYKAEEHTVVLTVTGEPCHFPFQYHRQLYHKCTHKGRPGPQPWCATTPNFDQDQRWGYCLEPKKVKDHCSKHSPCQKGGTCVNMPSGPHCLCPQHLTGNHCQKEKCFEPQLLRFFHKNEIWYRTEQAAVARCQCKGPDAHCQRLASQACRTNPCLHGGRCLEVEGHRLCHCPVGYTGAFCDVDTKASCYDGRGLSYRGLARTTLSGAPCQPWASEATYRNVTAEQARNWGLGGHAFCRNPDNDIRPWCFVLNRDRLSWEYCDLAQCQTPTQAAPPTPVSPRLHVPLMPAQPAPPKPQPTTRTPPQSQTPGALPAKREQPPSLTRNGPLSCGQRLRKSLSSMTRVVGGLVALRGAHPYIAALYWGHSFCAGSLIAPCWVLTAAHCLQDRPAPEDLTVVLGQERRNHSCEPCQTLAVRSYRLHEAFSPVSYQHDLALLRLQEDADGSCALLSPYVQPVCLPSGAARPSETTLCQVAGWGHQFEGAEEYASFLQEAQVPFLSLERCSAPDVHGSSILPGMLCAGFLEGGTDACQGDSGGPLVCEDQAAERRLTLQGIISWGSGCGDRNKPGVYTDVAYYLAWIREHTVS

[9] = biological target: T3, Microphthalmia-associated transcription factor (Homo sapiens, UniProt O75030); experiment: reducers of TRPM1 reporter luminescence, concentration series – cell-based, SK-MEL-5, cherry-picked, set 3, MITF inhibitor project, dose response (AID 493073); format: functional;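 note: SK-MEL-5 melanoma cells with luciferase driven by the MITF target TRPM1 promoter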
T3 sequence (O75030 whole entry): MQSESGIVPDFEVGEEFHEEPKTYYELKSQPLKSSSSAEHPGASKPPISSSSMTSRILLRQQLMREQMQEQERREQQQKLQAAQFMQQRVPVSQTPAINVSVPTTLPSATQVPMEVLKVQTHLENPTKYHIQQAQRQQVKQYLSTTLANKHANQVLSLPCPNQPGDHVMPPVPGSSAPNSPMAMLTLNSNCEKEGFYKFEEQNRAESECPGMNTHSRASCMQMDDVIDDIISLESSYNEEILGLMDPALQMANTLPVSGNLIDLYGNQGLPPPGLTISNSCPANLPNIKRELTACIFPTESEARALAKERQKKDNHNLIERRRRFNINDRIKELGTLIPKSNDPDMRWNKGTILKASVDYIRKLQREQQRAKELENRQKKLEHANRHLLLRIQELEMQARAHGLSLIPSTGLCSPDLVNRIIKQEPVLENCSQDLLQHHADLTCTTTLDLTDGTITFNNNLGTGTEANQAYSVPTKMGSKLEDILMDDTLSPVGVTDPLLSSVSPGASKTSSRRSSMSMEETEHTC

[10] = reduction of Shn3 3'UTR-driven luciferase in osteoblasts – cell-based, Clone20 osteoblasts, firefly luciferase, cherry-picked, dose response (AID 624132); format: functional;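 note: firefly luciferase luminescence from reporter carrying the Shn3 3'UTR in osteoblasts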
[11] = loss of viability in HepG2 cells – cell-based, CellTiter-Glo, cherry-picked, cytotoxicity control for Shn3 inhibitor project, dose response (AID 624134); format: functional
[12] = non-specific 3'UTR reporter inhibition in Clone20-Shn3RL – cell-based, Renilla luciferase, cherry-picked, counter-screen for Shn3 inhibitor project, dose response (AID 624133); format: functional
[13] = ATP-based viability loss in HepG2 cells – cell-based, CellTiter-Glo luminescence, dry powder, set 3, cytotoxicity control, dose response (AID 720594); format: functional
[14] = ATP-based viability loss in HEK293T cells – cell-based, CellTiter-Glo luminescence, dry powder, set 2, cytotoxicity control, dose response (AID 720595); format: functional; details: HEK293
[15] = ATP-based viability loss in HeLa cells – cell-based, CellTiter-Glo luminescence, dry powder, set 2, cytotoxicity control, dose response (AID 720593); format: functional
[16] = general mammalian cell viability loss – inhibitor set, cherry-pick, set 2, cytotoxicity control for miR-122 modulator project, dose response (AID 720697); format: functional, cell-based
[17] = general mammalian cell viability loss – activator set, cherry-pick, cytotoxicity control for miR-122 modulator project, dose response (AID 720690); format: functional, cell-based;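 note: HEK293T human cells scored for general mammalian cytotoxicity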
[18] = L6 myocyte viability loss – cell-based, plate reader, cherry-pick, cytotoxicity control, dose response (AID 651896); format: functional
[19] = antileishmanial activity on axenic amastigotes – plate reader, cherry pick, dose response (AID 651891); format: functional, cell-based; details: Leishmania donovani
[20] = intracellular Trypanosoma cruzi inhibitors in host cells – cell-based, plate reader, cherry-pick samples, set 3, dose response (AID 651818); format: functional;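 note: compounds incubated with infected cells for about four days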
[21] = African trypanosome bloodstream form growth inhibition – STIB900 strain, plate reader, cherry pick, dose response (AID 651893); format: functional, cell-based, Trypanosoma brucei rhodesiense; details: Trypanosoma brucei
[22] = antimalarial activity against erythrocytic parasites – NF54 strain, plate reader, dry powder, dose response (AID 651889); format: functional, cell-based
[23] = host muscle cell viability loss – plate reader, dry powder, counter-screen for T. cruzi inhibitor project, dose response (AID 651895); format: functional, cell-based
[24] = T. cruzi growth inhibition in host cells, dose response, cell-based, plate reader, dry powder, set 2 (AID 652275); format: functional
[25] = Trypanosoma cruzi replication inhibitors in host cells – cell-based, plate reader, dry powder samples, dose response (AID 651845); format: functional
[26] = anti-trypanosomal activity in BESM host cells – imaging, CA-I/72 strain, bovine embryo skeletal muscle, dry powder, dose response (AID 651885); format: functional, cell-based
[27] = antileishmanial activity on axenic amastigotes – plate reader, dry powder, dose response (AID 651892); format: functional, cell-based
[28] = intracellular Chagas parasite inhibition in myoblasts – Tulahuen strain, L-6 host cells, dry powder, dose response (AID 651890); format: functional, cell-based
[29] = African trypanosome bloodstream form growth inhibition – STIB900 strain, plate reader, dry powder, dose response (AID 651894); format: functional, cell-based
[30] = biological target: NAD-dependent protein deacylase sirtuin-5, mitochondrial (Homo sapiens, UniProt Q9NXA8); experiment: sirtuin-5 deacylation blockers, concentration series – biochemical, fluorescence imaging, cherry-pick, set 5, dose response (AID 720591);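 note: desuccinylation of succinyl peptide AMC substrate read as fluorescence after trypsin release; potency of inhibitors that lower fluorescence and may act on trypsin instead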
Chain of NAD-dependent protein deacylase sirtuin-5, mitochondrial (Q9NXA8 whole entry): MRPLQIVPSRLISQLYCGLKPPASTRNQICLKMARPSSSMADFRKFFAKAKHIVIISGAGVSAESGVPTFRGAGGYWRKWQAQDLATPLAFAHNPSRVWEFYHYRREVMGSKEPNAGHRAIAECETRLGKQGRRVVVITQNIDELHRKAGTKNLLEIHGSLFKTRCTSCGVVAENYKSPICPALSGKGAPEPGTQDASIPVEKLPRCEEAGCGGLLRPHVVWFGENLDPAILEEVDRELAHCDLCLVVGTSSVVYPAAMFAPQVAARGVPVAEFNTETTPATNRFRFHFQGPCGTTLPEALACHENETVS

Paired box protein Pax-8 = Paired box protein Pax-8 (Homo sapiens, UniProt Q06710); experiment: PAX8 transcriptional activity inhibition in RMG-I – RMG-I cells, luciferase, cherry-pick, dose response (AID 687027); format: functional, cell-based;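 note: luciferase reporter driven by Pax8 target thyroperoxidase promoter measured by SteadyGlo luminescence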
Chain of Paired box protein Pax-8 (Q06710 whole entry): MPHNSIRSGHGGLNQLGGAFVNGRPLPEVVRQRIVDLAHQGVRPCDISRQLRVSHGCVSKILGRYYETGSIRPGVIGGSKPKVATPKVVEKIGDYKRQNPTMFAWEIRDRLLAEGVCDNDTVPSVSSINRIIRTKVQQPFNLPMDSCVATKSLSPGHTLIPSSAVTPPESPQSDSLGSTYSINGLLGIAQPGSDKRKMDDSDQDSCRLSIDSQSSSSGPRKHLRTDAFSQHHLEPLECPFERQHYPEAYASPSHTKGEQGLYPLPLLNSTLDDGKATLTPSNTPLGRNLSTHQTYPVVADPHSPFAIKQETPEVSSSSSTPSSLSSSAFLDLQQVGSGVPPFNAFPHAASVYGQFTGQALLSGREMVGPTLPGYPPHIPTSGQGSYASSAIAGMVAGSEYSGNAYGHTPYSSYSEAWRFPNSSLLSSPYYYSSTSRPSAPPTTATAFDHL

[31] = reduced cellular PGC1a acetyl-lysine signal – cell-based, cherry-picked samples, dose response (AID 720514); format: functional;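 note: potency may reflect raised or lowered acetylation signal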
[32] = OVCAR-3 cell viability loss – plate reader, dry powder samples, PAX8 inhibitor project, dose response (AID 743044); format: functional, cell-based
[33] = IGROV1 cell killing – plate reader, dry powder samples, PAX8 inhibitor project, dose response (AID 743043); format: functional, cell-based; details: IGROV-1
[34] = general cell-killing toxicity readout – plate reader, dry powder samples, cytotoxicity control for PAX8 inhibitor project, dose response (AID 743021); format: functional, cell-based
[35] = OVCAR8 cell viability loss – plate reader, dry powder samples, PAX8 project, dose response (AID 743197); format: functional, cell-based; details: OVCAR-8
[36] = P. falciparum Dd2 growth inhibitors, dose response, SYBR Green, cherry-picked samples (AID 1159567); format: functional, cell-based
[37] = toxicity to human hepatoma HepG2 cells – cell-based, cherry-picked samples, cytotoxicity control, dose response (AID 1159577); format: functional

With `Cc1cc2c(cc1S(=O)(=O)N1CCN(c3cccc(C)c3C)CC1)OCCN2C` the IC50 (Fibrinogen beta chain [1]) was 10.1 µM (inactive) and the IC50 (Fibrinogen beta chain [2]) was > 83.3 µM (inactive).
For `CC(C)C(=O)NC(c1ccco1)c1ccc2cccnc2c1O` (stereo unspecified), the EC50 [3] was 4.72 µM (inconclusive), the EC50 [4] was 3.15 µM (active) and the EC50 [5] was 38.8 µM (active). For the same compound, the EC50 (cells [6]) was 16.5 µM (active), the EC50 [7] was 1.6 µM (active) and the EC50 (cells [8]) was > 350 µM (not active). For the same compound, the EC50 (HT-1080) was > 50 µM (not active), the EC50 (Streptococcus) was 3.87 µM (active) and the IC50 (Coagulation factor XII) was > 50 µM (inactive). The AC50 [9] was 8.18 µM (active), the AC50 [10] was 2.05 µM (active) and the AC50 [11] was 3.1 µM (active). For the same compound, the AC50 [12] was 4.36 µM (active), the AC50 [13] was > 52 µM (inactive) and the AC50 [14] was 6.24 µM (active). For the same compound, the AC50 [15] was > 52 µM (inactive), the AC50 [16] was 3.72 µM (active) and the AC50 [17] was 5 µM (active).
With `C[C@@H]1CN([C@H](C)CO)C(=O)c2cccc(NC(=O)c3ccncc3)c2O[C@@H]1CN(C)Cc1ccc(Oc2ccccc2)cc1` the IC50 [18] was 44.2 µM (inactive), the IC50 [19] was > 100 µM (inactive) and the AC50 [20] was 1.05 µM (active). The IC50 [21] was 2.63 µM (inactive), the IC50 [22] was 2.23 µM (inactive) and the IC50 [23] was 64.6 µM (inactive). For the same compound, the AC50 [24] was 0.309 µM (active), the AC50 [25] was 0.286 µM (active) and the IC50 [26] was 2 µM (active). For the same compound, the IC50 [27] was > 100 µM (inactive), the IC50 [28] was 1.16 µM (active) and the IC50 [29] was 1.31 µM (inactive).
For `O=C(NC(c1ccc(Cl)cc1)c1cnccn1)C1CCN(Cc2ccc(Cl)cc2)CC1` (stereo unspecified), the AC50 [30] was > 30 µM (inactive).
In the case of `COc1ccccc1-c1ccc([C@@H]2[C@@H]3CN(S(=O)(=O)c4ccc(-c5ccccc5)cc4)C[C@H]2N3)cc1`, the AC50 (Paired box protein Pax-8) is reported as 23.3 µM (active), the AC50 [31] is reported as 9.34 µM (active) and the AC50 [32] is reported as 33.6 µM (active). For the same compound, the AC50 [33] was 49.5 µM (active), the AC50 [34] was 0.302 µM (active) and the AC50 [35] was 56 µM (active). For the same compound, the AC50 [36] was 2.6 µM (active) and the AC50 [37] was 10.6 µM (active).
